Assay results reported in patent publication US8648092B2, “Imidazo[1,2-a]pyridine derivatives: preparation and pharmaceutical applications” (MEI Pharma, priority 2005, dated 2014).

What was measured:
Colo205 cells = experiment: Cell-based proliferation assay for determination of GI50 values (CyQUANT); parameters: species or system human; details: Homo sapiens
Procedure, shortened: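 Colo205 cells in RPMI 1640 with 5% FBS, seeded 5000/well and grown 24 h at 37 °C. Exposure to compound lasted 96 h, with growth read by CyQUANT. GI50 = concentration giving 50% growth inhibition, from dose-response curves.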

[1] = target: HDAC1 enzyme (recombinant GST-HDAC1) (Homo sapiens (Human), UniProt Q13547); experiment: In vitro HDAC assay for determination of IC50 values (BIOMOL fluorescent-based HDAC activity assay); assay type: biochemical; details: Flur de lys substrate, 2 h room temperature, read-out: IC50 (HDAC 1)
Procedure, shortened: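 Recombinant human GST-HDAC1, baculovirus-expressed in SF9 cells and glutathione-purified, tested with a fluorogenic deacetylase substrate; Fluor de Lys developer added for 10 min. Fluorescence at 360 nm excitation/460 nm emission; IC50 fitted from a concentration series.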

Sequence of HDAC1 enzyme (recombinant GST-HDAC1) (Q13547 whole entry): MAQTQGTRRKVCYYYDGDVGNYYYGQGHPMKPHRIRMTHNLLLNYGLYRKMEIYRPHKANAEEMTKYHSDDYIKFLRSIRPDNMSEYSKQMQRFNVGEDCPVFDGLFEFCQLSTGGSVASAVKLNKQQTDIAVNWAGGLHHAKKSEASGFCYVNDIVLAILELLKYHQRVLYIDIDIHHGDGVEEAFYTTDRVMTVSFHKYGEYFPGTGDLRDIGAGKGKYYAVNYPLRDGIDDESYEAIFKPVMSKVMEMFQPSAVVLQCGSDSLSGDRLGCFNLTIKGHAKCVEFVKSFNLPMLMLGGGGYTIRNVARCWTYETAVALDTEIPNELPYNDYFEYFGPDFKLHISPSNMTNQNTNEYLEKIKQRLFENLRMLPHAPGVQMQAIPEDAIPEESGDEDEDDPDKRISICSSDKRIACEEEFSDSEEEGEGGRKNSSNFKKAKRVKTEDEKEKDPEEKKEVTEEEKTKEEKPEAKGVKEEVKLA

Row | SMILES | GI50 (Colo205 cells; COLO 205, 96 h, 96 h treatment) | IC50 [1] | GI50 (Colo205 cells; COLO 205, 96 h treatment)
1 | CCN(Cc1c(C(C)(C)C)nc2cc(/C=C/C(=O)NO)ccn12)CC1CCCCC1 [Compound 98, 3-{2-tert-Butyl-3-[(cyclohexylmethyl-ethyl-amino)-methyl]-imidazo[1,2-a]pyridin-7-yl}-N-hydroxy-acrylamide] | 1.1 µM | 0.19 µM | –
2 | CCCCCCc1nc2cc(/C=C/C(=O)NO)ccn2c1NCCC(=O)N(CCC)CCO [Compound 33, 3-(2-Hexyl-3-{2-[(2-hydroxy-ethyl)-propyl-carbamoyl]-ethylamino}-imidazo[1,2-a]pyridin-7-yl)-N-hydroxy-acrylamide] | – | 0.83 µM | 27 µM
3 | CCN1CCN(Cc2c(-c3ccccc3)nc3cc(/C=C/C(=O)NO)ccn23)CC1 [Compound 57, 3-[3-(4-Ethyl-piperazin-1-ylmethyl)-2-phenyl-imidazo[1,2-a]pyridin-7-yl]-N-hydroxy-acrylamide] | – | 4.6 µM | 14 µM
4 | CCCCNCc1c(CCCC)nc2cc(/C=C/C(=O)NO)ccn12 [Compound 72, 3-(2-Butyl-3-butylaminomethyl-imidazo[1,2-a]pyridin-7-yl)-N-hydroxy-acrylamide] | – | 0.02 µM | 0.18 µM
5 | CCN(CCOC)Cc1c(-c2ccccc2)nc2cc(/C=C/C(=O)NO)ccn12 [Compound 56, 3-(3-{[Ethyl-(2-methoxy-ethyl)-amino]-methyl}-2-phenyl-imidazo[1,2-a]pyridin-7-yl)-N-hydroxy-acrylamide] | – | 1.6 µM | 9 µM
6 | O=C(/C=C/c1ccn2c(CNCC3CC3)c(-c3ccccc3)nc2c1)NO [Compound 61, 3-{3-[(Cyclopropylmethyl-amino)-methyl]-2-phenyl-imidazo[1,2-a]pyridin-7-yl}-N-hydroxy-acrylamide] | – | 0.08 µM | 0.56 µM
7 | CCCCN(CC)Cc1c(C(C)(C)C)nc2cc(/C=C/C(=O)NO)ccn12 [Compound 85, 3-{2-tert-Butyl-3-[(butyl-ethyl-amino)-methyl]-imidazo[1,2-a]pyridin-7-yl}-N-hydroxy-acrylamide] | – | 0.06 µM | 0.68 µM
8 | CCCCCCc1nc2cc(/C=C/C(=O)NO)ccn2c1NCCC(=O)N(C)C(C)C [Compound 37, 3-{2-Hexyl-3-[2-(isopropyl-methyl-carbamoyl)-ethylamino]-imidazo[1,2-a]pyridin-7-yl}-N-hydroxy-acrylamide] | – | 0.59 µM | 5.3 µM
9 | CCCCCCc1nc2cc(/C=C/C(=O)NO)ccn2c1NCCC(=O)NC [Compound 36, 3-[2-Hexyl-3-(2-methylcarbamoyl-ethylamino)-imidazo[1,2-a]pyridin-7-yl]-N-hydroxy-acrylamide] | – | 0.39 µM | 14 µM
10 | COCCNc1c(CC(C)CC(C)(C)C)nc2ccc(/C=C/C(=O)NO)cn12 (centres unmarked) [Compound 15, (E)-N-hydroxy-3-(3-(2-methoxyethylamino)-2-(2,4,4-trimethylpentyl)imidazo[1,2-a]pyridin-6-yl)acrylamide] | – | 0.76 µM | 16 µM
11 | CCCCc1nc2cc(/C=C/C(=O)NO)ccn2c1CN(C)CCCC [Compound 76, 3-{2-Butyl-3-[(butyl-methyl-amino)-methyl]-imidazo[1,2-a]pyridin-7-yl}-N-hydroxy-acrylamide] | – | 0.07 µM | 0.17 µM
12 | CC(C)(C)NCc1c(-c2ccccc2)nc2cc(C(=O)NO)ccn12 [Compound 70, 3-(tert-Butylamino-methyl)-2-phenyl-imidazo[1,2-a]pyridine-7-carboxylic acid hydroxyamide] | – | > 10 µM | > 100 µM
13 | CCCCCCc1nc2cc(/C=C/C(=O)NO)ccn2c1NCCC(=O)NCCSC [Compound 25, 3-{2-Hexyl-3-[2-(2-methylsulfanyl-ethylcarbamoyl)-ethylamino]-imidazo[1,2-a]pyridin-7-yl}-N-hydroxy-acrylamide] | – | 0.073 µM | 2.1 µM
14 | COCCNc1c(CC(C)(C)C)nc2ccc(/C=C/C(=O)NO)cn12 [Compound 8, 3-[2-(2,2-Dimethyl-propyl)-3-(2-methoxy-ethylamino)-imidazo[1,2-a]pyridin-6-yl]-N-hydroxy-acrylamide] | – | 1 µM | 14 µM
15 | CCCN(CC)Cc1c(C)nc2cc(/C=C/C(=O)NO)ccn12 [Compound 100, 3-{3-[(Ethyl-propyl-amino)-methyl]-2-methyl-imidazo[1,2-a]pyridin-7-yl}-N-hydroxy-acrylamide] | 4.6 µM | 0.54 µM | –
16 | O=C(/C=C/c1ccc2nc(CCc3ccccc3)c(NC3CCCCC3)n2c1)NO [Compound 6, 3-(3-Cyclohexylamino-2-phenethyl-imidazo[1,2-a]pyridin-6-yl)-N-hydroxy-acrylamide] | – | 1.4 µM | 42 µM
17 | CCCCN(C)Cc1c(C(C)(C)C)nc2cc(/C=C/C(=O)NO)ccn12 [Compound 106, 3-{2-tert-Butyl-3-[(butyl-methyl-amino)-methyl]-imidazo[1,2-a]pyridin-7-yl}-N-hydroxy-acrylamide] | – | 0.22 µM | 1.7 µM

Row | SMILES | GI50 (Colo205 cells; COLO 205, 96 h, 96 h treatment) | IC50 [1] | GI50 (Colo205 cells; COLO 205, 96 h treatment)
18 | CCCCCc1nc2cc(/C=C/C(=O)NO)ccn2c1CN(CC)CCC(C)C [Compound 130, 3-(3-{[Ethyl-(3-methyl-butyl)-amino]-methyl}-2-pentyl-imidazo[1,2-a]pyridin-7-yl)-N-hydroxy-acrylamide] | 0.14 µM | 0.03 µM | –
19 | CCCCN(CC)Cc1c(CC(C)C)nc2cc(/C=C/C(=O)NO)ccn12 [Compound 134, 3-{3-[(Butyl-ethyl-amino)-methyl]-2-isobutyl-imidazo[1,2-a]pyridin-7-yl}-N-hydroxy-acrylamide] | 0.15 µM | 0.04 µM | –
20 | CCC(CC)CN(CC)Cc1c(C)nc2cc(/C=C/C(=O)NO)ccn12 [Compound 101, 3-(3-{[Ethyl-(2-ethyl-butyl)-amino]-methyl}-2-methyl-imidazo[1,2-a]pyridin-7-yl)-N-hydroxy-acrylamide] | – | 0.01 µM | 0.05 µM
21 | CCN(CCC(C)(C)C)Cc1c(-c2ccccc2)nc2cc(/C=C/C(=O)NO)ccn12 [Compound 122, 3-(3-{[(3,3-Dimethyl-butyl)-ethyl-amino]-methyl}-2-phenyl-imidazo[1,2-a]pyridin-7-yl)-N-hydroxy-acrylamide] | – | 0.05 µM | 0.52 µM
22 | CCC(CC)CN(C)Cc1c(C(C)(C)C)nc2cc(/C=C/C(=O)NO)ccn12 [Compound 107, 3-(2-tert-Butyl-3-{[(2-ethyl-butyl)-methyl-amino]-methyl}-imidazo[1,2-a]pyridin-7-yl)-N-hydroxy-acrylamide] | – | 0.41 µM | 2.3 µM
23 | CCCN(CCO)Cc1c(-c2ccccc2)nc2cc(/C=C/C(=O)NO)ccn12 [Compound 48, N-Hydroxy-3-(3-{[(2-hydroxy-ethyl)-propyl-amino]-methyl}-2-phenyl-imidazo[1,2-a]pyridin-7-yl)-acrylamide] | – | 1 µM | 9.2 µM
24 | CCCN(C)Cc1c(C(C)(C)C)nc2cc(/C=C/C(=O)NO)ccn12 [Compound 50, 3-{2-tert-Butyl-3-[(methyl-propyl-amino)-methyl]-imidazo[1,2-a]pyridin-7-yl}-N-hydroxy-acrylamide] | – | 0.52 µM | 2.4 µM
25 | CCCCc1nc2cc(/C=C/C(=O)NO)ccn2c1CN(C)C [Compound 83, 3-(2-Butyl-3-dimethylaminomethyl-imidazo[1,2-a]pyridin-7-yl)-N-hydroxy-acrylamide] | 0.23 µM | 0.04 µM | –
26 | CCCCNc1c(CCCC)nc2ccc(/C=C/C(=O)NO)cn12 [Compound 13, 3-(2-Butyl-3-butylamino-imidazo[1,2-a]pyridin-6-yl)-N-hydroxy-acrylamide] | – | 0.72 µM | 8.9 µM
27 | CCc1nc2cc(/C=C/C(=O)NO)ccn2c1CNC(C)(C)C [Compound 137, 3-[3-(tert-Butylamino-methyl)-2-ethyl-imidazo[1,2-a]pyridin-7-yl]-N-hydroxy-acrylamide] | – | 0.03 µM | 0.26 µM
28 | CCCN(CC)Cc1c(-c2ccccc2)nc2cc(/C=C/C(=O)NO)ccn12 [Compound 52, 3-{3-[(Ethyl-propyl-amino)-methyl]-2-phenyl-imidazo[1,2-a]pyridin-7-yl}-N-hydroxy-acrylamide] | – | 0.24 µM | 1.2 µM
29 | CCCCN(C)Cc1c(-c2ccccc2)nc2cc(/C=C/C(=O)NO)ccn12 [Compound 71, 3-{3-[(Butyl-methyl-amino)-methyl]-2-phenyl-imidazo[1,2-a]pyridin-7-yl}-N-hydroxy-acrylamide] | – | 0.12 µM | 1 µM
30 | O=C(/C=C/c1ccc2nc(CCc3ccccc3)c(Nc3ccc(N4CCCCC4)cc3)n2c1)NO [Compound 3, N-Hydroxy-3-[2-phenethyl-3-(4-piperidin-1-yl-phenylamino)-imidazo[1,2-a]pyridin-6-yl]-acrylamide] | – | 0.79 µM | 1.9 µM
31 | CCCCCCc1nc2cc(/C=C/C(=O)NO)ccn2c1NCCC(=O)NCC(C)(C)CN(C)C [Compound 35, 3-{3-[2-(3-Dimethylamino-2,2-dimethyl-propylcarbamoyl)-ethylamino]-2-hexyl-imidazo[1,2-a]pyridin-7-yl}-N-hydroxy-acrylamide] | – | 0.14 µM | 9.3 µM
32 | Cc1cn2ccc(/C=C/C(=O)NO)cc2n1 [Compound 41, N-Hydroxy-3-(2-methyl-imidazo[1,2-a]pyridin-7-yl)-acrylamide] | – | 1.3 µM | 2.5 µM
33 | CCN(CC)Cc1c(-c2ccccc2)nc2cc(/C=C/C(=O)NO)ccn12 [Compound 51, 3-(3-Diethylaminomethyl-2-phenyl-imidazo[1,2-a]pyridin-7-yl)-N-hydroxy-acrylamide] | – | 0.2 µM | 1.1 µM
34 | CC(C)(C)CNCc1c(C(C)(C)C)nc2cc(/C=C/C(=O)NO)ccn12 [Compound 67, 3-[2-tert-Butyl-3-[(2,2-dimethyl-propylamino)-methyl]-imidazo[1,2-a]pyridin-7-yl]-N-hydroxy-acrylamide] | – | 0.19 µM | 1.5 µM
